Reference: the kinase profiling compilation of Christmann-Franck et al. (2016)

Tests used:
Assay in all cases: KINOMEscan competition binding
Conditions in all cases: compound 10.0 µM
[1] = target: CAMK1G (human) (UniProt Q96NX5)
[2] = target: IRAK1 (human) (UniProt P51617)
[3] = target: CSK (human) (UniProt P41240)
[4] = target: MAP3K13 (human) (UniProt O43283)
[5] = target: CHUK (human) (UniProt O15111)
[6] = target: GAK (human) (UniProt O14976)
[7] = target: PDPK1 (human) (UniProt O15530)
[8] = target: FGFR3 (human) (UniProt P22607)
[9] = target: PRKD1 (human) (UniProt Q15139)
[10] = target: MAP2K1 (human) (UniProt Q02750)
MAP2K1 (human), sequence (Q02750 whole entry, looked up): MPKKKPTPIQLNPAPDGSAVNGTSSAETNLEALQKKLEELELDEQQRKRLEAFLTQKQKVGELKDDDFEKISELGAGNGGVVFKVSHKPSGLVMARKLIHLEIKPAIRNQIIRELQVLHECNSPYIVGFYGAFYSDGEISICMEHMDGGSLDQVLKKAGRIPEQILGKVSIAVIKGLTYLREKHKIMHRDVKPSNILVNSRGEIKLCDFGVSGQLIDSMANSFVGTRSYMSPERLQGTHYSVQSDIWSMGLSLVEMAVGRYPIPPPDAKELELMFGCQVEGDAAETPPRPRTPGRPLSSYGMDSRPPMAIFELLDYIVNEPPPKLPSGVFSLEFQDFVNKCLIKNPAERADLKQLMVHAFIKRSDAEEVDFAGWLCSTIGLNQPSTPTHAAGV

[11] = target: DAPK2 (human) (UniProt Q9UIK4)
DAPK2 (human), sequence (Q9UIK4 whole entry, looked up): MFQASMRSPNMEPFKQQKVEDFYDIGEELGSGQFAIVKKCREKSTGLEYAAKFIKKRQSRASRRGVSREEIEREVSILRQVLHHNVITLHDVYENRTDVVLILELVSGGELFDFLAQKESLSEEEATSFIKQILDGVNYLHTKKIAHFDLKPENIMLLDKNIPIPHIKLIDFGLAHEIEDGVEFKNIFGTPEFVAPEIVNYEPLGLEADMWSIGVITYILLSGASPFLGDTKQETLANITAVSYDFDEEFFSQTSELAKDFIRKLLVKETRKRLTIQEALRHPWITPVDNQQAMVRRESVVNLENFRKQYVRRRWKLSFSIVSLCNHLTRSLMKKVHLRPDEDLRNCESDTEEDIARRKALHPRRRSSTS

[12] = target: GRK4 (human) (UniProt P32298)
[13] = target: PKN2 (human) (UniProt Q16513)
[14] = target: HUNK (human) (UniProt P57058)
HUNK (human), sequence (P57058 whole entry, looked up): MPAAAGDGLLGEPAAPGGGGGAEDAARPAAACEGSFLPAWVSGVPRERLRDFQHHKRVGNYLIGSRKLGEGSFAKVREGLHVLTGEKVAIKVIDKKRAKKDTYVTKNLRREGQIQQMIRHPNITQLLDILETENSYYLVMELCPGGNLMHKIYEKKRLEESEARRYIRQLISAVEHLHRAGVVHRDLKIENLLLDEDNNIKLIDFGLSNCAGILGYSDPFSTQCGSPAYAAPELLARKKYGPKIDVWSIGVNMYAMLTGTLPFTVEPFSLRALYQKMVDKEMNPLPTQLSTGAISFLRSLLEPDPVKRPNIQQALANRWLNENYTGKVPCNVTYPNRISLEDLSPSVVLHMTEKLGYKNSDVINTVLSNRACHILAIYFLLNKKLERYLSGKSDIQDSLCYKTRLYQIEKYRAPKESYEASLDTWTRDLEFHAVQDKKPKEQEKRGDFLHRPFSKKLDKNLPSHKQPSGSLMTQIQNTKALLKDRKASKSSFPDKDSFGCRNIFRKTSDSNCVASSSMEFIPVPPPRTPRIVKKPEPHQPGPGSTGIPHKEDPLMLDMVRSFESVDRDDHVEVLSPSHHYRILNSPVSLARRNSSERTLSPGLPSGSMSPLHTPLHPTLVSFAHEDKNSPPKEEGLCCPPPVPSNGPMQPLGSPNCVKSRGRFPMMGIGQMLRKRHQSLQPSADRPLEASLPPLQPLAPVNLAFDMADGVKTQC

[15] = target: MUSK (human) (UniProt O15146)
[16] = target: CAMK2A (human) (UniProt Q9UQM7)
[17] = target: MAPK14 (human) (UniProt Q16539)
[18] = target: FRK (human) (UniProt P42685)
[19] = target: BMPR2 (human) (UniProt Q13873)
BMPR2 (human), sequence (Q13873 whole entry, looked up): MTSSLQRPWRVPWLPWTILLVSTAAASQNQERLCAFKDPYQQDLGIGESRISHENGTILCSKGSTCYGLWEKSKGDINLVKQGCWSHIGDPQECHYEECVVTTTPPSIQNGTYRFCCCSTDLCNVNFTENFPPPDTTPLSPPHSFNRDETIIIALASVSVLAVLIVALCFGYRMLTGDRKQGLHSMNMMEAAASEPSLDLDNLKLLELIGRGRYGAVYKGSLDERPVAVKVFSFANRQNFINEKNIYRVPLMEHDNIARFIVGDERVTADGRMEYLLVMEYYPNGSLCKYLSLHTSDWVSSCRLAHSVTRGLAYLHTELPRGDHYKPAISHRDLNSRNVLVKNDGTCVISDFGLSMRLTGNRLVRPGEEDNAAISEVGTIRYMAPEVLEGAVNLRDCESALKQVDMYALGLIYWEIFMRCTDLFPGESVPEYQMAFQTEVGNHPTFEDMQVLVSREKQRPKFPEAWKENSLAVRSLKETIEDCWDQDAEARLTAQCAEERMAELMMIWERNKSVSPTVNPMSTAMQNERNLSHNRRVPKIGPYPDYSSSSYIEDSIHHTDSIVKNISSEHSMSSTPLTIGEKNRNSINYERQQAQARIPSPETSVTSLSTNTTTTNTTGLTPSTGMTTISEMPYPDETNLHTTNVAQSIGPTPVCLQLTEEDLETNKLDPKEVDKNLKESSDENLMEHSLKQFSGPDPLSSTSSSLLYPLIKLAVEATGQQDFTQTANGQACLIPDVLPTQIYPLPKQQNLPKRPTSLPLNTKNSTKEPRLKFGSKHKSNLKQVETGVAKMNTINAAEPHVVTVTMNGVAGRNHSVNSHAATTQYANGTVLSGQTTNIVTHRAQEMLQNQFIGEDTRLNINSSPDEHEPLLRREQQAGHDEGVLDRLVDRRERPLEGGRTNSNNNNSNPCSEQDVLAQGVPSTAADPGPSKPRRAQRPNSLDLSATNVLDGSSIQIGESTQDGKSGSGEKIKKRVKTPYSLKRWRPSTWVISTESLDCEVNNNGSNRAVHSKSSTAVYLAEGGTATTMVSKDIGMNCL

[20] = target: LIMK2 (human) (UniProt P53671)
[21] = target: STK32C (human) (UniProt Q86UX6)
STK32C (human), sequence (Q86UX6 whole entry, looked up): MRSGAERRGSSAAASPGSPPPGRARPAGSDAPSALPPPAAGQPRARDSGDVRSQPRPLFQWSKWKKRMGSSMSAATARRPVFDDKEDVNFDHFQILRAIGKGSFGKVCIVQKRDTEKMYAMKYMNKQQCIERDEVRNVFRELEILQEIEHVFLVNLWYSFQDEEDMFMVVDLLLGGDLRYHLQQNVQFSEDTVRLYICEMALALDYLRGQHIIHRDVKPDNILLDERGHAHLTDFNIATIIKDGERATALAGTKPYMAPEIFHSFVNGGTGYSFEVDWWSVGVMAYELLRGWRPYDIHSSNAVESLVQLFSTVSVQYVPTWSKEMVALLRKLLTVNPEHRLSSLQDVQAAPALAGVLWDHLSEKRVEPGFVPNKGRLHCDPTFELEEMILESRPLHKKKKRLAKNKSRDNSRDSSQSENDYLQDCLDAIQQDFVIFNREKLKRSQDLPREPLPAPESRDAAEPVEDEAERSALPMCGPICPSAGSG

[22] = target: ULK1 (human) (UniProt O75385)
[23] = target: NEK11 (human) (UniProt Q8NG66)
[24] = target: HIPK3 (human) (UniProt Q9H422)
[25] = target: STK4 (human) (UniProt Q13043)
[26] = target: SGK3 (human) (UniProt Q96BR1)
SGK3 (human), sequence (Q96BR1 whole entry, looked up): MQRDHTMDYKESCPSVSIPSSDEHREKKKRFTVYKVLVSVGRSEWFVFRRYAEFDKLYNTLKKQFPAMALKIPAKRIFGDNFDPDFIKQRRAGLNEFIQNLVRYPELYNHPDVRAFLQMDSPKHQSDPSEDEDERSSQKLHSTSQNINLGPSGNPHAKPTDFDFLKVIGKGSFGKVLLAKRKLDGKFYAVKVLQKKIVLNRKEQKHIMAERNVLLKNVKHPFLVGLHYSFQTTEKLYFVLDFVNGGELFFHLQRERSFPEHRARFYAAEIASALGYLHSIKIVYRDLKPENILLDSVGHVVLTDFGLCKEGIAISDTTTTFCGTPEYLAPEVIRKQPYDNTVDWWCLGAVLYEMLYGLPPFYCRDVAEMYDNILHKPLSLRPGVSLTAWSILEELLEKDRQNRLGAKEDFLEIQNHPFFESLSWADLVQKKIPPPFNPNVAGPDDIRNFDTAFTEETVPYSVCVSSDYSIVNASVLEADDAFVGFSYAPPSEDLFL

[27] = target: ULK3 (human) (UniProt Q6PHR2)
[28] = target: PRKACB (human) (UniProt P22694)
[29] = target: FES (human) (UniProt P07332)
[30] = tested on: ABL1 (human), P00519 [Y253F]
[31] = target: RPS6KA1 KD2 (human) (UniProt Q15418)
[32] = target: CAMK1D (human) (UniProt Q8IU85)
CAMK1D (human), sequence (Q8IU85 whole entry, looked up): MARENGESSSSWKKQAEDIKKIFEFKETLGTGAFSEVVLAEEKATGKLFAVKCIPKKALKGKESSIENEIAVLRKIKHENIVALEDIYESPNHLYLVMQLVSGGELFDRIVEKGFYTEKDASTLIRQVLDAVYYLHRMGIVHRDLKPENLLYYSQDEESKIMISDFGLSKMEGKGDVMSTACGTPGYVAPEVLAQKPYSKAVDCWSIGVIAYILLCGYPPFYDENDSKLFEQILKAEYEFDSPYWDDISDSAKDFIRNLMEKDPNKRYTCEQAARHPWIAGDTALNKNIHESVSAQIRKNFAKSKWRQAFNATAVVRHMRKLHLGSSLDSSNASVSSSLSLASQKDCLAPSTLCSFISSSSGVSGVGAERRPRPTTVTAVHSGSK

[33] = target: INSR (human) (UniProt P06213)
[34] = target: AURKB (human) (UniProt Q96GD4)
[35] = target: DCLK1 (human) (UniProt O15075)
DCLK1 (human), sequence (O15075 whole entry, looked up): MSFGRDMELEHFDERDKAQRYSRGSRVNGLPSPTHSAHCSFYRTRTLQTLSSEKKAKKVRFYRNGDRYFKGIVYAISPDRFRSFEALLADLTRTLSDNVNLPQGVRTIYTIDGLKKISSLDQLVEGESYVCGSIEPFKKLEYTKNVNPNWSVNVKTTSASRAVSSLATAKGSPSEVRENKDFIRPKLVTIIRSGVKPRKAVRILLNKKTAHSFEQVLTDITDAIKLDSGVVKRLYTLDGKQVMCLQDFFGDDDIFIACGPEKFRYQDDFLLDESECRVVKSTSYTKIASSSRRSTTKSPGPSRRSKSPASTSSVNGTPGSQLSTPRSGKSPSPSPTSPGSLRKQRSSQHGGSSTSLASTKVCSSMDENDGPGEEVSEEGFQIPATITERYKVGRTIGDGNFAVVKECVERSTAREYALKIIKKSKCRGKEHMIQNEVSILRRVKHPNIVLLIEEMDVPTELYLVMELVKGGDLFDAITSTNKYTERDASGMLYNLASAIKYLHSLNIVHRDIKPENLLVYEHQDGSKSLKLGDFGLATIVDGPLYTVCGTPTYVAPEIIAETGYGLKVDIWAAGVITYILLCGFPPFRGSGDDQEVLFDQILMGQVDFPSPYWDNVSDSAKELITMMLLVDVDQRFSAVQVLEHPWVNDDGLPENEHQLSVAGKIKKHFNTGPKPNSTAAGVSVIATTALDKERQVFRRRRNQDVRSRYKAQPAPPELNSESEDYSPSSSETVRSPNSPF

[36] = target: GSK3A (human) (UniProt P49840)
[37] = target: KIT (human) (UniProt P10721)
[38] = tested on: FLT3 (human), P36888 [D835H]
[39] = target: CDKL1 (human) (UniProt Q00532)
CDKL1 (human), sequence (Q00532 whole entry, looked up): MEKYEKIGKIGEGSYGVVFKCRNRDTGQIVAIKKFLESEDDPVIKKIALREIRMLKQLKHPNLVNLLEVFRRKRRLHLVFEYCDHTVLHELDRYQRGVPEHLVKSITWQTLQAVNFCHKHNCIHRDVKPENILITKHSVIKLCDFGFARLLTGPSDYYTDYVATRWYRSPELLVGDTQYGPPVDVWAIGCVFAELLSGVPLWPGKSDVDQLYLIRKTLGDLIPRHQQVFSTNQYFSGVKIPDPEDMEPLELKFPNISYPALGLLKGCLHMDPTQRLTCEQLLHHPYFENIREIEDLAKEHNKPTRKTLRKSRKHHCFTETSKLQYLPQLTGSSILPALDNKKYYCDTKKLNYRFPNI

[40] = target: LCK (human) (UniProt P06239)
[41] = target: CHEK1 (human) (UniProt O14757)

COc1ccc(N(C(=O)Oc2c(C)cccc2C)c2ccnc(Nc3ccc(N4CCN(C)CC4)cc3)n2)c(OC)c1
kinase still bound, per cent of control [1]: 73% | kinase still bound, per cent of control [2]: 19% | kinase still bound, per cent of control [3]: 2.5% | kinase still bound, per cent of control [4]: 70% | kinase still bound, per cent of control [5]: 92% | kinase still bound, per cent of control [6]: 5.6% | kinase still bound, per cent of control [7]: 82% | kinase still bound, per cent of control [8]: 1% | kinase still bound, per cent of control [9]: 9.3% | kinase still bound, per cent of control [10]: 38% | kinase still bound, per cent of control [11]: 100% | kinase still bound, per cent of control [12]: 7.9% | kinase still bound, per cent of control [13]: 19% | kinase still bound, per cent of control [14]: 9% | kinase still bound, per cent of control [15]: 43% | kinase still bound, per cent of control [16]: 84% | kinase still bound, per cent of control [17]: 52% | kinase still bound, per cent of control [18]: 0% | kinase still bound, per cent of control [19]: 0.2% | kinase still bound, per cent of control [20]: 0% | kinase still bound, per cent of control [21]: 19% | kinase still bound, per cent of control [22]: 31% | kinase still bound, per cent of control [23]: 100% | kinase still bound, per cent of control [24]: 91% | kinase still bound, per cent of control [25]: 42% | kinase still bound, per cent of control [26]: 100% | kinase still bound, per cent of control [27]: 59% | kinase still bound, per cent of control [28]: 2.5% | kinase still bound, per cent of control [29]: 0.35% | kinase still bound, per cent of control [30]: 0.1% | kinase still bound, per cent of control [31]: 65% | kinase still bound, per cent of control [32]: 100% | kinase still bound, per cent of control [33]: 100% | kinase still bound, per cent of control [34]: 18% | kinase still bound, per cent of control [35]: 84% | kinase still bound, per cent of control [36]: 100% | kinase still bound, per cent of control [37]: 0.45% | kinase still bound, per cent of control [38]: 3% | kinase still bound, per cent of control [39]: 100% | kinase still bound, per cent of control [40]: 0.1% | kinase still bound, per cent of control [41]: 100%

COc1cc2ncnc(-n3nc(-c4ccccn4)nc3N)c2cc1OC
kinase still bound, per cent of control [1]: 34% | kinase still bound, per cent of control [2]: 2.8% | kinase still bound, per cent of control [3]: 43% | kinase still bound, per cent of control [4]: 96% | kinase still bound, per cent of control [5]: 44% | kinase still bound, per cent of control [6]: 2.6% | kinase still bound, per cent of control [7]: 90% | kinase still bound, per cent of control [8]: 84% | kinase still bound, per cent of control [9]: 88% | kinase still bound, per cent of control [10]: 64% | kinase still bound, per cent of control [11]: 12% | kinase still bound, per cent of control [12]: 39% | kinase still bound, per cent of control [13]: 79% | kinase still bound, per cent of control [14]: 41% | kinase still bound, per cent of control [15]: 71% | kinase still bound, per cent of control [16]: 44% | kinase still bound, per cent of control [17]: 50% | kinase still bound, per cent of control [18]: 19% | kinase still bound, per cent of control [19]: 88% | kinase still bound, per cent of control [20]: 20% | kinase still bound, per cent of control [21]: 44% | kinase still bound, per cent of control [22]: 6.6% | kinase still bound, per cent of control [23]: 80% | kinase still bound, per cent of control [24]: 0% | kinase still bound, per cent of control [25]: 61% | kinase still bound, per cent of control [26]: 74% | kinase still bound, per cent of control [27]: 10% | kinase still bound, per cent of control [28]: 100% | kinase still bound, per cent of control [29]: 99% | kinase still bound, per cent of control [30]: 0.3% | kinase still bound, per cent of control [31]: 14% | kinase still bound, per cent of control [32]: 34% | kinase still bound, per cent of control [33]: 91% | kinase still bound, per cent of control [34]: 0.4% | kinase still bound, per cent of control [35]: 36% | kinase still bound, per cent of control [36]: 73% | kinase still bound, per cent of control [37]: 10% | kinase still bound, per cent of control [38]: 3.2% | kinase still bound, per cent of control [39]: 21% | kinase still bound, per cent of control [40]: 5.2% | kinase still bound, per cent of control [41]: 100%
